Literature values as cited in patent US6875793B2, “Once-a-day controlled release sulfonylurea formulation” (Penwest Pharmaceuticals Co., priority 1997, dated 2005).

Experiments:
[1] = test system: insulin secretion; settings: after an oral dose, diabetic patients

For `Cc1cnc(C(=O)NCCc2ccc(S(=O)(=O)NC(=O)NC3CCCCC3)cc2)cn1` [Glipizide], the “time to insulinotropic response to a meal” value [1] is given as at most 30 min.
In the case of `CCCCNC(=O)NS(=O)(=O)c1ccc(C)cc1` [Tolbutamide], the solubility in water (water) is given as “practically insoluble”.
For `COc1ccc(Cl)cc1C(=O)NCCc1ccc(S(=O)(=O)NC(=O)NC2CCCCC2)cc1` [Glyburide], the “solubility in organic solvents” value (organic solvents) is listed as “soluble” and the solubility in water (water) is listed as “sparingly soluble”.
For `Cc1ccc(S(=O)(=O)NC(=O)NN2CCCCCC2)cc1` [Tolazamide], the “solubility at pH 6.0 (mean urinary pH)” value (pH 6.0) is listed as 27.8 mg per 100 ml and the solubility in water (water) is listed as “relatively insoluble”.
In the case of `CC(=O)c1ccc(S(=O)(=O)NC(=O)NC2CCCCC2)cc1` [Acetohexamide], the solubility in alcohol (alcohol) is given as “slightly soluble”, the solubility in alkali (alkali, e.g., 0.1N sodium hydroxide, dilute solutions of alkali hydroxides) is given as “soluble” and the solubility in water (water) is given as “practically insoluble”.
For `CCCNC(=O)NS(=O)(=O)c1ccc(Cl)cc1` [Chlorpropamide], the “solubility in water at pH 6.0” value (water, pH 6.0) is listed as 2.2 mg/ml and the “solubility in water at pH 7.3” value (water, pH 7.3) is listed as “practically non-soluble”.
